Results from patent US10428387B2, “Treating chronic myelogenous leukemia (CML)” (priority 2014, dated 2019).
Where a name gives a salt, the structure may show the parent alone.

Tests used:
IMSG KD K562 cells = conditions: representative IMSG KD K562 cell lines expressing PRKCH shRNA
[1] = tested on: phosphorylated ERK1/2 in CML progenitor and stem cells; experiment: Intracellular phosphorylated-ERK1/2 analysis by FACS; type: cell-based, mouse; conditions: 5 μM IM or 10 nM trametinib, 3 hours
Protocol: For intracellular phosphorylated-ERK1/2 analysis, bone marrow cells isolated from leukemic mice were treated with 5 μM IM or 10 nM trametinib for 3 hours, fixed in 4% paraformaldehyde (Electron Microscopy Sciences) for 10 min at 37° C., washed twice with wash buffer (0.05% BSA in 1×PBS), spun down, and resuspended in 100 μl wash buffer. Ice-cold methanol (900 μl) was added to the cells while gently vortexing to reach a final 90% for permeabilization. Samples were incubated on ice for 30 min, washed twice, and resuspended in 100 μl wash buffer. IgG control antibody (Cell signaling) was added (at 1:100 dilution) for 10 min at room temperature for blocking, followed by addition of 2 μl conjugated IgG control (Pacific Blue-conjugated IgG^XP Rabbit mAb, Cell Signaling) or phospho-ERK antibody (Pacific Blue-conjugated P-p44/42(T202/Y204)^XP Rabbit mAb, Cell Signaling). Samples were gently mixed and incubated at room temperature for 1 hour. Thirty minutes after the start of the incubation, a cocktail of primary antibodies for cell surface markers (described above) was added, incubated for a further 30 min, washed once with PBS, and incubated with the secondary antibody for 20 min on ice. Samples were then washed once with wash buffer prior to FACS analysis.

[2] = tested on: RAF/MEK/ERK signaling (phosphorylated ERK1/2); experiment: Immunoblot analysis of RAF/MEK/ERK signaling in K562 cell lines; type: cell-based, human
Protocol: Cells were harvested and lysed with RIPA buffer (10×, 200 mM HEPES pH 6.8, 1400 mM NaCl, 25 mM MgCl2, 25 mM CaCl2, 10% NP40, and 5% sodium deoxycholate) plus phosphatase (Sigma) and protease inhibitors (Roche). […] The PKCη antibody (Santa Cruz Technology; C-15) was diluted in 5% skim milk at 1:150. The β-actin antibody (Sigma; AC-74) diluted in 5% BSA at 1:5000. Blots were developed with Pico/Femato super signal (Sigma) and visualized using autoradiography or a Bio-Rad ChemiDoc MP Imaging System.

K562R cells = conditions: K562R over-express the Src family kinase LYN; cited from earlier work
[3] = tested on: mice with CML-like disease (Prkch KD); experiment: Prkch knockdown mice with CML-like disease; type: in vivo, mouse; conditions: IM from day 14
Protocol: Mice with CML-like disease were generated as previously described (22). Briefly, wild-type male C57BL/6 mice 6-8 weeks of age (Jackson Laboratory) were tail-vein injected with 5-fluorouracil (200 mg/kg; Sigma) for 4 days to enrich for slow-cycling hematopoietic stem cells. At day 5, bone marrow cells were harvested and pre-incubated overnight in the presence of IL-3, IL-6 and SCF (all from PeproTech) to increase infection efficiency. At days 6 and 7, bone marrow cells were infected with a BCR-ABL retrovirus by co-sedimentation method at 3,000 rpm for 90 min at room temperature. Four hours after the second round of retroviral infection, 0.5×10^6 bone marrow cells were injected into the tail vein of syngeneic recipient mice that had been lethally irradiated (twice at 550 R). Mice were randomly allocated to each group after bone marrow transplantation.

Cc1ccc(NC(=O)c2ccc(CN3CCN(C)CC3)cc2)cc1Nc1nccc(-c2cccnc2)n1 [IM, imatinib mesylate]
IM resistance after knockdown of PRKCH (IMSG KD K562 cells): abrogated the IM resistance
phosphorylated ERK1/2 in CML progenitor cells [1]: reduced levels of phosphorylated ERK1/2
phosphorylated MEK and ERK1/2 after IM treatment ([2]; K562/PRKCH cells): maintained high levels
phosphorylation of ERK1/2 following IM treatment ([2]; all IMSG KD K562 cell lines): sustained levels
phosphorylated-ERK1/2 levels after IM treatment ([2]; control K562 cells): substantial decrease
sensitivity of K562R cells (K562R cells): resistant
survival of IM-treated mice after knockdown of Prkch [3]: markedly increased survival
